The test system of one test is Z138 cells. The test can be described thus: MTT cell proliferation assay, Z138 cells. It is filed as cell-based, human. The method, then: (§1) The MTT cell proliferation assay was used to study the cytotoxic properties of the compounds. The assay was performed according to the method described by Roche Molecular Biochemicals, with minor modifications. The assay is based on the cleavage of the tetrazolium salt, MTT, in the presence of an electron-coupling reagent. The water-insoluble formazan salt produced must be solubilized in an additional step. Cells grown in a 96-well tissue culture plate were incubated with the MTT solution for approximately 4 hours. After this incubation period, a water-insoluble formazan dye formed. After solubilization, the formazan dye was quantitated using a scanning multi-well spectrophotometer (ELISA reader). […] The cells were seeded at 5,000-10,000 cells in each well of 96-well plate in 100 μL of fresh culture medium and were allowed to attach overnight. The stock solutions of the compounds were diluted in […] cell culture medium to obtain eight concentrations of each test compound, ranging from 1 nM to 30 μM. […] All optical densities were measured at 490 nm using a Vmax Kinetic Microplate Reader (Molecular Devices). In most cases, the assay was performed in duplicate and the results were presented as a mean percent inhibition to the negative control±SE. The following formula was used to calculate the percent of inhibition: Inhibition (%)=(1-(ODo/OD))×100.
(§2) The compounds were tested against MS751, Z138 and 3T3 cells. The MS751 cell line is derived from a metastasis to lymph node of human cervix from a patient diagnosed with squameous cell carcinoma of the cervix. The Z138 cell line is a mature B-cell acute lymphoblastic leukemia cell line derived from a patient with chronic lumphocytic leukemia. 3T3 cells are standard fibroblast cells; they were originally isolated from Swiss mouse embryo tissue.

The test system of a further test is MS751 cells. Nature of the test: MTT cell proliferation assay, MS751 cells. The class given is cell-based, human. Particulars: incubation approximately 64-72 hours, read-out: MTT Assay IC50, MS 751. The method, then:
as §1, §2
(In general: Tetrazolium dyes change colour on reduction, which living cells bring about.)

The next test deals with 3T3 cells. The test can be described thus: MTT cell proliferation assay, 3T3 cells. It is filed as cell-based, mouse. The following applies: 3T3 fibroblast cells, incubation approximately 64-72 hours. The method, then: as §1, §2
The mark [1] stands for this setting: Homo sapiens, Z-138, incubation approximately 64-72 hours.

Read-outs that look alike come from different tables or passages of the source. Where only a bound is given, the exact number is not on record here.

Results on ten molecules are retold here after US20190218207A1, “3-(Pyridin-3-yl)-Acrylamide and N-(Pyridin-3-yl)-Acrylamide Derivatives and Their Use as PAK or NAMPT Modulators” (Karyopharm Therapeutics Inc., priority 2015, published 2019).

As a reminder, the IC50 is the concentration needed to halve the response being measured.

As for `Cc1c(CNC(=O)/C=C/c2ccc(N)nc2)sc(-c2ccc(-c3ccc(C(=O)N4CC(F)C4)cc3)cc2C(F)(F)F)c1C` [Compound A016, (E)-3-(6-aminopyridin-3-yl)-N-((5-(4′-(3-fluoroazetidine-1-carbonyl)-3-(trifluoromethyl)-[1,1′-biphenyl]-4-yl)-3,4-dimethylthiophen-2-yl)methyl)acrylamide], the IC50 in the test on Z138 cells (setting [1]) is above 10000 nM; with MS751 cells (Homo sapiens) it was above 10000 nM; in the test on 3T3 cells (Mus musculus, NIH3T3), above 10000 nM.

For the molecule `Cc1c(CNC(=O)/C=C/c2ccc(N)nc2)sc(-c2ccc(-c3ccc(C(=O)N4CCC(F)(F)CC4)cc3)cc2-c2ccc(F)cc2)c1C` [Compound A023, (E)-3-(6-aminopyridin-3-yl)-N-((5-(4-(4,4-difluoropiperidine-1-carbonyl)-4″-fluoro-[1,1′:3′,1″-terphenyl]-4′-yl)-3,4-dimethylthiophen-2-yl)methyl)acrylamide], the IC50 is below 1000 nM in the test on Z138 cells (setting [1]); 1000 to 5000 nM with MS751 cells (Homo sapiens); above 10000 nM in the test with 3T3 cells (Mus musculus, NIH3T3).

Take `Nc1ccc(/C=C/C(=O)NCc2cnc(-c3ccc(-c4ccc(C(=O)N5CC(F)C5)cc4F)cc3C(F)(F)F)o2)cn1` [Compound A020, (E)-3-(6-aminopyridin-3-yl)-N-((2-(2′-fluoro-4′-(3-fluoroazetidine-1-carbonyl)-3-(trifluoromethyl)-[1,1′-biphenyl]-4-yl)oxazol-5-yl)methyl)acrylamide]: the IC50 was below 1000 nM with Z138 cells (setting [1]); below 1000 nM in the test with MS751 cells (Homo sapiens); 1000 to 5000 nM in the test on 3T3 cells (Mus musculus, NIH3T3).

On to `Nc1ccc(/C=C/C(=O)NCc2ccc(-c3c(C(F)(F)F)cc(-c4ccc(C(=O)N5CC(F)(F)C5)cn4)cc3C(F)(F)F)o2)cn1` [Compound A025, (E)-3-(6-aminopyridin-3-yl)-N-((5-(4-(5-(3,3-difluoroazetidine-1-carbonyl)pyridin-2-yl)-2,6-bis(trifluoromethyl)phenyl)furan-2-yl)methyl)acrylamide], for which the IC50 is below 1000 nM with Z138 cells (setting [1]); below 1000 nM in the test on MS751 cells (Homo sapiens); below 1000 nM with 3T3 cells (Mus musculus, NIH3T3).

As for `Nc1ccc(/C=C/C(=O)NCc2ccc(-c3ccc(-c4ccc(C(=O)N5CC(F)(F)C5)cn4)cc3C(F)(F)F)o2)cn1` [Compound A003, (E)-3-(6-aminopyridin-3-yl)-N-((5-(4-(5-(3,3-difluoroazetidine-1-carbonyl)pyridin-2-yl)-2-(trifluoromethyl)phenyl)furan-2-yl)methyl)acrylamide], the IC50 with Z138 cells (setting [1]) is below 1000 nM; with MS751 cells (Homo sapiens), below 1000 nM; with 3T3 cells (Mus musculus, NIH3T3), below 1000 nM.

For `Cn1c(CNC(=O)/C=C/c2ccc(N)nc2)ccc1-c1ccc(-c2ccc(C(=O)N3CCC(F)(F)CC3)cc2)cc1-c1ccc(F)cc1` [Compound A-012, (E)-3-(6-aminopyridin-3-yl)-N-((5-(4-(4,4-difluoropiperidine-1-carbonyl)-4″-fluoro-[1,1′:3′,1″-terphenyl]-4′-yl)-1-methyl-1H-pyrrol-2-yl)methyl)acrylamide], the IC50 was above 10000 nM in the test on Z138 cells (setting [1]); above 10000 nM in the test with MS751 cells (Homo sapiens); above 10000 nM in the test on 3T3 cells (Mus musculus, NIH3T3).

Consider `Nc1ccc(/C=C/C(=O)NCc2ccc(-c3cc4cc(C(=O)N5CCC(F)(F)CC5)cnc4cc3C(F)(F)F)o2)cn1` [Compound A026, (E)-3-(6-aminopyridin-3-yl)-N-((5-(3-(4,4-difluoropiperidine-1-carbonyl)-7-(trifluoromethyl)quinolin-6-yl)furan-2-yl)methyl)acrylamide], for which the IC50 was below 1000 nM in the test with Z138 cells (setting [1]); below 1000 nM in the test on MS751 cells (Homo sapiens); 1000 to 5000 nM in the test with 3T3 cells (Mus musculus, NIH3T3).

For the molecule “(E)-3-(6-aminopyridin-3-yl)-N-((5-(1-chloro-6-(4,4-difluoropiperidine-1-carbonyl)naphthalen-2-yl)furan-2-yl)methyl)acrylamide [Compound A004]”, the IC50 was below 1000 nM with Z138 cells (incubation approximately 64-72 hours, read-out: MTT Assay IC50, Z-138); below 1000 nM in the test with MS751 cells; above 10000 nM with 3T3 cells.

On to `Cc1cc(-c2ccc(-c3ccc(C(=O)N4CC(F)C4)cc3)cc2C(F)(F)F)sc1CNC(=O)/C=C/c1ccc(N)nc1` [Compound A014, (E)-3-(6-aminopyridin-3-yl)-N-((5-(4′-(3-fluoroazetidine-1-carbonyl)-3-(trifluoromethyl)-[1,1′-biphenyl]-4-yl)-3-methylthiophen-2-yl)methyl)acrylamide], for which the IC50 is below 1000 nM with Z138 cells (setting [1]); below 1000 nM with MS751 cells (Homo sapiens); 5000 to 10000 nM in the test with 3T3 cells (Mus musculus, NIH3T3).

Turning to `Nc1ccc(/C=C/C(=O)NCc2cnc(-c3ccc(-c4ccc(C(=O)N5CC(F)(F)C5)cc4)cc3C(F)(F)F)o2)cn1` [Compound A019, (E)-3-(6-aminopyridin-3-yl)-N-((2-(4′-(3,3-difluoroazetidine-1-carbonyl)-3-(trifluoromethyl)-[1,1′-biphenyl]-4-yl)oxazol-5-yl)methyl)acrylamide], the IC50 in the test on Z138 cells (setting [1]) was below 1000 nM; in the test on MS751 cells (Homo sapiens), below 1000 nM; with 3T3 cells (Mus musculus, NIH3T3), 1000 to 5000 nM.
